Experimental data taken from patent US9527807B2, “Sulfonamide derivative and use thereof” (Takeda Pharmaceutical Company Limited, priority 2011, dated 2016).

Each compound was assayed on methamphetamine (MAP)-induced hyperlocomotion (assay: methamphetamine (MAP)-induced hyperlocomotion). Details: FIG. 1.
Assay type: in vivo

SMILES | inhibition of methamphetamine (MAP)-induced hyperlocomotion
CS(=O)(=O)N[C@H]1CCOC[C@@H]1COc1ccc(-n2cc(Cl)cn2)cc1 [compound A, N-[(3R,4S)-3-{[4-(4-chloro-1H-pyrazol-1-yl)phenoxy]methyl}tetrahydro-2H-pyran-4-yl]methanesulfonamide] | inhibition
CCS(=O)(=O)N[C@H]1CCOC[C@@H]1COc1ccc(-n2cc(Cl)cn2)cc1F [compound B, N-[(3R,4S)-3-{[4-(4-chloro-1H-pyrazol-1-yl)-2-fluorophenoxy]methyl}tetrahydro-2H-pyran-4-yl]ethanesulfonamide] | inhibition

What follows are compounds tested against T1, AMPA receptor (human GluR1 flip/stargazin expressed in CHO-K1 cells) (Homo sapiens, UniProt P42261) (assay: AMPA receptor function enhancing activity using calcium influx as index). Details: change in fluorescence level in 3 min, 100% = 3 mM glutamic acid + 300 μM cyclothiazide, 0% = 3 mM glutamic acid only.
T1 construct: expressed in transfected cells; host or cells: CHO-K1
T1 sequence (P42261 19-906 isoform P42261-2 limits assumed): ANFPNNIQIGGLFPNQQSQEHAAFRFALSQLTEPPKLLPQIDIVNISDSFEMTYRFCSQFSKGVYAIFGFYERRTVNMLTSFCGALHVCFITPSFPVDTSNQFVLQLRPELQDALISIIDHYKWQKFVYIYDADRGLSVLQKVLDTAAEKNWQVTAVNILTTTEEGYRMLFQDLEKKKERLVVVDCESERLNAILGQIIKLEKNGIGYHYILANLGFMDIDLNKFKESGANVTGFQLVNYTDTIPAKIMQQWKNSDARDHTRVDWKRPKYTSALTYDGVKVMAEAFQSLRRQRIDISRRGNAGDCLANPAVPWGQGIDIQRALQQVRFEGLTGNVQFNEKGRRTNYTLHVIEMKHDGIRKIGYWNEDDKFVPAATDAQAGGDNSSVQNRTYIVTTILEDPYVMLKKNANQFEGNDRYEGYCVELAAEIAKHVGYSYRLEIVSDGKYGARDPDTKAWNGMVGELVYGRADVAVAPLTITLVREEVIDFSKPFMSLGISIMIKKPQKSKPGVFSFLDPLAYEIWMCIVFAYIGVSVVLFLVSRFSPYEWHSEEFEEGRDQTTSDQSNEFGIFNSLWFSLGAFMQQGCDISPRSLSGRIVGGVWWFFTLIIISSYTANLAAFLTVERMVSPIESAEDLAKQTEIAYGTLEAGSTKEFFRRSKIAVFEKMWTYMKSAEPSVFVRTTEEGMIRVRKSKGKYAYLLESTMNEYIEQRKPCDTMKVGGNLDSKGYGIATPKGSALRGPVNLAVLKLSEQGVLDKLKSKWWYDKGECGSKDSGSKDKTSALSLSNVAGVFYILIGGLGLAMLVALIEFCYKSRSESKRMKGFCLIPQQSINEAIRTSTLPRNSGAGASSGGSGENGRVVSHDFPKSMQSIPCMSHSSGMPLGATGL
T1 sequence (Q9Y698 whole entry partner): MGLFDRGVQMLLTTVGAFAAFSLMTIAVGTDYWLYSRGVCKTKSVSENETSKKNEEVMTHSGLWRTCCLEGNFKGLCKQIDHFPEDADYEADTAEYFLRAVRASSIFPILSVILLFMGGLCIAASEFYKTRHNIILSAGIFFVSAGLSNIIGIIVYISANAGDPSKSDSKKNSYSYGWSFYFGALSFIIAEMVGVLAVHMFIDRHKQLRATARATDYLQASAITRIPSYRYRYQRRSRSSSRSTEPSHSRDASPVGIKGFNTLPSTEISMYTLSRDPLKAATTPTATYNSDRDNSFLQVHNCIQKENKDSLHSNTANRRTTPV
Assay type: cell-based
Outline: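 CHO-K1 cells co-expressing human GluR1 flip and stargazin, Calcium 4 dye with 1.25 mM probenecid; compound added with glutamate (3 mM final), fluorescence change over 3 min. Activity (%) scaled between 3 mM glutamate alone (0%) and glutamate plus 300 μM cyclothiazide (100%).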

SMILES | activity (%)
CCS(=O)(=O)N[C@@H]1CCCC[C@H]1COc1ccc(CCC#N)cc1 (relative stereo) [Example 50, trans-N-[2-{[4-(2-cyanoethyl)phenoxy]methyl}cyclohexyl] ethanesulfonamide] | 78
CCS(=O)(=O)N[C@H]1CCN(C(C)=O)C[C@@H]1COc1ccc(C(C)C)cc1 (single isomer, unassigned) [Example 94, trans-N-[1-acetyl-3-{[4-(1-methylethyl)phenoxy]methyl}piperidin-4-yl]ethanesulfonamide] | 70
O=S(=O)(N[C@@H]1CCCC[C@H]1COc1ccc(C2CC2)cc1)C1CC1 (relative stereo) [Example 12, trans-N-[2-[(4-cyclopropylphenoxy)methyl]cyclohexyl]cyclopropanesulfonamide] | 72
CCS(=O)(=O)N[C@H]1CCCC[C@@H]1COc1ccc(C(C)C)cc1 (relative stereo) [Example 8, trans-N-[2-{[4-(1-methylethyl)phenoxy]methyl}cyclohexyl]ethanesulfonamide] | 79
CCS(=O)(=O)N[C@H]1CCN(C(C)=O)C[C@@H]1COc1ccc(CCC#N)cc1 (relative stereo) [Example 2, trans-N-[1-acetyl-3-{[4-(2-cyanoethyl)phenoxy]methyl}piperidin-4-yl]ethanesulfonamide] | 38

Next, values leading:

activity (%) | SMILES
93 | CS(=O)(=O)N[C@H]1CCOC[C@@H]1COc1ccc(-n2cc(Cl)cn2)cc1 [Example 269, N-[(3R,4S)-3-{[4-(4-chloro-1H-pyrazol-1-yl)phenoxy]methyl}tetrahydro-2H-pyran-4-yl]methanesulfonamide]
74 | CS(=O)(=O)N[C@H]1CCOC[C@@H]1COc1ccc(-n2cc(Cl)cn2)cc1 (racemic) [Example 270, N-[(3RS,4SR)-3-{[4-(4-chloro-1H-pyrazol-1-yl)phenoxy]methyl}tetrahydro-2H-pyran-4-yl]methanesulfonamide]
38 | CS(=O)(=O)N[C@H]1C[C@H]2CC[C@H](O2)[C@@H]1COc1ccc(-c2ccc(C#N)cn2)cc1 (mixture of isomers) [Example 508, N-((1S,2SR,3SR,5R)-2-((4-(5-cyanopyridin-2-yl)phenoxy)methyl)-8-oxabicyclo[3.2.1]oct-3-yl)methanesulfonamide]
74 | CS(=O)(=O)N[C@H]1COCC[C@@H]1COc1ccc(-n2cc(Cl)cn2)cc1F [Example 207, N-[(3R,4S)-4-{[4-(4-chloro-1H-pyrazol-1-yl)-2-fluorophenoxy]methyl}tetrahydro-2H-pyran-3-yl]methanesulfonamide]
87 | CCS(=O)(=O)N[C@H]1CCOC[C@@H]1COc1ccc(-c2cc(C)on2)c(F)c1 [Example 248, N-[(3R,4S)-3-{[3-fluoro-4-(5-methylisoxazol-3-yl)phenoxy]methyl}tetrahydro-2H-pyran-4-yl]ethanesulfonamide]
66 | CCS(=O)(=O)N[C@H]1CCOC[C@@H]1COc1ccc(-n2nccc2C)cc1 (racemic) [Example 431, N-[(3RS,4SR)-3-{[4-(5-methyl-1H-pyrazol-1-yl)phenoxy]methyl}tetrahydro-2H-pyran-4-yl]ethanesulfonamide]
90 | CCS(=O)(=O)N[C@H]1CCOC[C@@H]1COc1ccc(-n2cc(Cl)cn2)cc1 (relative stereo) [Example 140, trans-N-[3-{[4-(4-chloro-1H-pyrazol-1-yl)phenoxy]methyl}tetrahydro-2H-pyran-4-yl]ethanesulfonamide]
99 | CCS(=O)(=O)N[C@H]1CCOC[C@@H]1COc1ccc(-c2ccc(F)cn2)c(F)c1 (single isomer, unassigned) [Example 313, N-[(3R,4S)-3-{[3-fluoro-4-(5-fluoropyridin-2-yl)phenoxy]methyl}tetrahydro-2H-pyran-4-yl]ethanesulfonamide or N-[(3S,4R)-3-{[3-fluoro-4-(5-fluoropyridin-2-yl)phenoxy]methyl}tetrahydro-2H-pyran-4-yl]ethanesulfonamide]
92 | CS(=O)(=O)N[C@@H]1CCOC[C@H]1COc1ccc(-c2ccc(Cl)cn2)cc1F (single isomer, unassigned) [Example 266, N-[(3S,4R)-3-{[4-(5-chloropyridin-2-yl)-2-fluorophenoxy]methyl}tetrahydro-2H-pyran-4-yl]methanesulfonamide or N-[(3R,4S)-3-{[4-(5-chloropyridin-2-yl)-2-fluorophenoxy]methyl}tetrahydro-2H-pyran-4-yl]methanesulfonamide]

Each compound was assayed on MAP-induced hyperlocomotion in mice (assay: Inhibition of methamphetamine (MAP)-induced hyperlocomotion). Details: male ICR mice; compound 10 mg/kg p.o. 60 min before MAP 2 mg/kg s.c.; counts 0-120 min after MAP; Welch's t-test; FIG. 1.
Assay type: in vivo
Protocol: Male ICR mice were supplied by CLEA Japan, Inc (Japan). After arrival to the vivarium, animals were allowed a minimum of 1 week for acclimation. They were housed under a 12:12-h light/dark cycle in a temperature- and humidity-controlled laboratory and allowed food and water ad libitum.
A test compound was suspended in 0.5% methylcellulose in distilled water and orally administered (p.o.). Methamphetamine (Dainippon Sumitomo Pharma Co., Ltd.) was dissolved in saline and subcutaneously administered (s.c.). All drugs were dosed in a volume of 10 mL/kg body weight for mice.
The widely used animal models of psychosis have been the measurement of the extent of hyperlocomotion induced by psychostimulants (e.g., amphetamine, cocaine, methamphetamine, MK-801 and phencyclidine) in rodents (Psychopharmacology 1999, vol. 145: 237-250). 2 compounds (A and B) were tested for its ability to antagonize MAP-induced hyperlocomotion in mice. Male ICR mice were habituated in the locomotor chambers with infrared sensors (BrainScienceIdea Co., Ltd. Japan) to the experiment. […] Locomotion activities were measured, and accumulated counts (120 min after administration of MAP) were calculated in each treatment group. All data were represented as means plus the standard errors of the means (n=3-8) and analyzed using Welch's t-test with significance set at ^$P<0.05, ^$$P<0.01 and ^$$$P<0.001. […]

SMILES | inhibition of MAP-induced hyperlocomotion (accumulated locomotion counts)
CS(=O)(=O)N[C@H]1CCOC[C@@H]1COc1ccc(-n2cc(Cl)cn2)cc1 [compound A, N-[(3R,4S)-3-{[4-(4-chloro-1H-pyrazol-1-yl)phenoxy]methyl}tetrahydro-2H-pyran-4-yl]methanesulfonamide] | significant inhibition
CCS(=O)(=O)N[C@H]1CCOC[C@@H]1COc1ccc(-n2cc(Cl)cn2)cc1F [compound B, N-[(3R,4S)-3-{[4-(4-chloro-1H-pyrazol-1-yl)-2-fluorophenoxy]methyl}tetrahydro-2H-pyran-4-yl]ethanesulfonamide] | significant inhibition
